# Source: article PMC9516332 (Frontiers in Oncology, 2022)
# Where two headings read alike, the source gives them in different places.
# Experiments:
# Assay in all cases: Kinase panel profiling at 1 µmol/L (MSA or IMAP), percentage inhibition
# Type in all cases: biochemical
# [1] = molecular target: T1, panel of 255 wild-type kinases (Homo sapiens, UniProt Q92630); conditions: read-out: %-inhibition at 1 µmol/L, DYRK2
# T1 sequence (Q92630 1-601): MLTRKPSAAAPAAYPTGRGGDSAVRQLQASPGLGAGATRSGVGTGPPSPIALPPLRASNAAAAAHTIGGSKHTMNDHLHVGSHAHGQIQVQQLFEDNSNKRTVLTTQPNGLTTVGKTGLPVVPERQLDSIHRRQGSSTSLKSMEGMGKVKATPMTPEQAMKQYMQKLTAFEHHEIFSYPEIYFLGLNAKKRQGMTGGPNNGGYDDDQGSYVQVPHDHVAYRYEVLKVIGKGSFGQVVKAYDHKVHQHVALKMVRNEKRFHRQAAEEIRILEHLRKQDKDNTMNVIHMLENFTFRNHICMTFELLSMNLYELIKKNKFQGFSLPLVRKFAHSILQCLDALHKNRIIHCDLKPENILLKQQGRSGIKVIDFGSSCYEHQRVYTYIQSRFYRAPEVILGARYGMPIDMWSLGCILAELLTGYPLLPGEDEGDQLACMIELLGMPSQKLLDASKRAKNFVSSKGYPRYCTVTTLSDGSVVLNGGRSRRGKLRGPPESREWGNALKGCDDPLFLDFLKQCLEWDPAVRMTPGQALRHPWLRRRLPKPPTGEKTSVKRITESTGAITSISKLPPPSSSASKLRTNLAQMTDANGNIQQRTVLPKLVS
# [2] = molecular target: panel of 255 wild-type kinases (Homo sapiens, UniProt Q9P286); conditions: read-out: %-inhibition, PAK5
# [3] = molecular target: T2, panel of 255 wild-type kinases (Homo sapiens, UniProt Q9UL54); conditions: read-out: %-inhibition at 1 µmol/L, TAOK2
# T2 sequence (Q9UL54 1-1235): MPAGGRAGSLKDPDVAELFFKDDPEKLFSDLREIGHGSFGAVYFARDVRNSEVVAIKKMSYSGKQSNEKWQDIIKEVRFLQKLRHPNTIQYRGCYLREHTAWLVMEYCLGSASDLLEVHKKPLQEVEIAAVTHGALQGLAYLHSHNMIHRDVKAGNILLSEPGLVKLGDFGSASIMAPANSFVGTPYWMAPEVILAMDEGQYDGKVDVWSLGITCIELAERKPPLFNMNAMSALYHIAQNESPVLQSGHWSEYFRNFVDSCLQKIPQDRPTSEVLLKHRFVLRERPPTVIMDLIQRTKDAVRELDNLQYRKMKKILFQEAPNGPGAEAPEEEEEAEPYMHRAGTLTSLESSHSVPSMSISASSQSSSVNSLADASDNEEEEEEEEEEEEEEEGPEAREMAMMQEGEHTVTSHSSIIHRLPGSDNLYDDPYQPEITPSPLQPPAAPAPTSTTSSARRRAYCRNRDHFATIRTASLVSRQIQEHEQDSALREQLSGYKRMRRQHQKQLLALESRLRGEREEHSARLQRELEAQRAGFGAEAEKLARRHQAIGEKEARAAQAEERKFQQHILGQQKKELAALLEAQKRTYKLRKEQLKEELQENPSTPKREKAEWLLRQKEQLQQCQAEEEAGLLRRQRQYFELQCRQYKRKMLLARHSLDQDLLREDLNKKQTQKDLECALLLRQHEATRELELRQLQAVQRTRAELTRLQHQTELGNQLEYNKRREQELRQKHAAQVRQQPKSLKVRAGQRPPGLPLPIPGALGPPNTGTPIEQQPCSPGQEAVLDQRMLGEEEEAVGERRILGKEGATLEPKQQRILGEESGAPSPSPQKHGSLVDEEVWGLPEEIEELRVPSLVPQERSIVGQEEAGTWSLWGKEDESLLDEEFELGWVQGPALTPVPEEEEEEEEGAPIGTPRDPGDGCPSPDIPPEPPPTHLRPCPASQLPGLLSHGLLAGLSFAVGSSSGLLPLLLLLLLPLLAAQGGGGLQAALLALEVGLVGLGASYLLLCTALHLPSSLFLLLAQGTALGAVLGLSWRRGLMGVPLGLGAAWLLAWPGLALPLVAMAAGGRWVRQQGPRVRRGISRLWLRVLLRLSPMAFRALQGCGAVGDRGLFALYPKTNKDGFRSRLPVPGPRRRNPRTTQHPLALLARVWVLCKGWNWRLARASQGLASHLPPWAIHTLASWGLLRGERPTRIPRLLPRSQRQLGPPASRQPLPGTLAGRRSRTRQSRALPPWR
# [4] = molecular target: panel of 255 wild-type kinases (Homo sapiens, UniProt P49841); conditions: kinase GSK3β; 1 µmol/L single concentration
# [5] = molecular target: T3, panel of 255 wild-type kinases (Homo sapiens, UniProt Q06418); conditions: read-out: %-inhibition at 1 µmol/L, TYRO3
# T3 sequence (Q06418 41-890): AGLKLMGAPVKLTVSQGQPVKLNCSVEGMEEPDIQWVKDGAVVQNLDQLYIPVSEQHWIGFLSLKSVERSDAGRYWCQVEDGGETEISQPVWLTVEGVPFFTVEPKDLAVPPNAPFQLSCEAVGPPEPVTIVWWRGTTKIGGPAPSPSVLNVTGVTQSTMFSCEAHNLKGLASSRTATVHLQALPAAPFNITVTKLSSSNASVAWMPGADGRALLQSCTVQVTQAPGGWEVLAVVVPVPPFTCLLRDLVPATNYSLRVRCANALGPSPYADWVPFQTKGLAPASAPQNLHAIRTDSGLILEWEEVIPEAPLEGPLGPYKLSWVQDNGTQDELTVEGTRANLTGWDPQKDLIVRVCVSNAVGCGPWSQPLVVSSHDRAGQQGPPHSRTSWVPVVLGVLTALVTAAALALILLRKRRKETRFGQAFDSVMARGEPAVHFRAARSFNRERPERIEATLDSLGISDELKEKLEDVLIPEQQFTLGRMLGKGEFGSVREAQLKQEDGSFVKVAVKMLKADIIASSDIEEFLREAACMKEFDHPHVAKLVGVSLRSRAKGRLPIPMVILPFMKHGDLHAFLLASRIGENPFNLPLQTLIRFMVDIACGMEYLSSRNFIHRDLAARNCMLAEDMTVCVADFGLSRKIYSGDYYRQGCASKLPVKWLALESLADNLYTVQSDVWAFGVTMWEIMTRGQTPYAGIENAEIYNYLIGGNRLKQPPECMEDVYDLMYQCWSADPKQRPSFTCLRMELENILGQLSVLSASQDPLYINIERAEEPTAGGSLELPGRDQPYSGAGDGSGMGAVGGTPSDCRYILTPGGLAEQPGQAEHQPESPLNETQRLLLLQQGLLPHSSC
# [6] = kinase DYRK2, 1 µmol/L single concentration
# [7] = PAK5, 1 µmol/L single concentration
# [8] = kinase TAOK2, 1 µmol/L single concentration
# [9] = kinase TYRO3, 1 µmol/L single concentration
Structure (SMILES),"inhibition at 1 µM [1, 6] [%]","inhibition at 1 µM [2, 7] [%]","inhibition at 1 µM [3, 8] [%]",inhibition at 1 µM [4] [%],"inhibition at 1 µM [5, 9] [%]",inhibition at 1 µM [1] [%],inhibition at 1 µM [2] [%],inhibition at 1 µM [3] [%],inhibition at 1 µM [5] [%]
Cc1nc(NC(=O)N2CCC[C@H]2C(N)=O)sc1-c1ccnc(C(C)(C)C(F)(F)F)c1 [alpelisib],7,-2.58,-1.44,-4,1.52,–,–,–,–
Cn1cc(-c2cc3c(N4CCN(c5ncc([C@@](C)(N)c6ccc(F)cc6)cn5)CC4)ncnn3c2)cn1 [avapritinib],56,4.51,6,-5.32,72,–,–,–,–
Cn1cnc2c(F)c(Nc3ccc(Br)cc3F)c(C(=O)NOCCO)cc21 [binimetinib],6.52,5,0.465,-1.84,5.28,–,–,–,–
CNC(=O)c1ccc(-c2cnc3ncc(Cc4ccc5ncccc5c4)n3n2)cc1F [capmatinib],–,–,–,–,–,8,0.765,3,7
COc1cc2ncnc(Nc3ccc(F)c(Cl)c3)c2cc1NC(=O)/C=C/CN1CCCCC1 [dacomitinib],38,4.29,1,11,27,–,–,–,–
C[C@H](Nc1ncnc2nc[nH]c12)c1cc2cccc(Cl)c2c(=O)n1-c1ccccc1 [duvelisib],8,-1,-0.0517,-0.808,6,–,–,–,–
COC(=O)N[C@@H](C)CNc1nccc(-c2cn(C(C)C)nc2-c2cc(Cl)cc(NS(C)(=O)=O)c2F)n1 [encorafenib],11,0.399,-0.719,92,8,–,–,–,–
CN1CCN(c2ccc(C(=O)Nc3n[nH]c4ccc(Cc5cc(F)cc(F)c5)cc34)c(NC3CCOCC3)c2)CC1 [entrectinib],11,25,3,-1.6,20,–,–,–,–
CCc1nc(C(N)=O)c(Nc2ccc(N3CCC(N4CCN(C)CC4)CC3)c(OC)c2)nc1NC1CCOCC1 [gilteritinib],39,92,9,4,93,–,–,–,–
CCN1CCN(c2ccc(Nc3cc(N(C)C(=O)Nc4c(Cl)c(OC)cc(OC)c4Cl)ncn3)cc2)CC1 [infigratinib],-3.43,2.49,91,-9,10,–,–,–,–
O=C(Nc1cnn2ccc(N3CCC[C@@H]3c3cc(F)ccc3F)nc12)N1CC[C@H](O)C1 [larotrectinib],6,-0.213,3.76,-11,5.58,–,–,–,–
C[C@H]1Oc2cc(cnc2N)-c2c(nn(C)c2C#N)CN(C)C(=O)c2ccc(F)cc21 [lorlatinib],4.35,11,-1.11,-4.7,9,–,–,–,–
CCN1C(=O)N(c2c(F)c(OC)cc(OC)c2F)Cc2cnc3[nH]c(CN4CCOCC4)cc3c21 [pemigatinib],12,2.26,48,-7,4,–,–,–,–
FC(F)(F)c1ccc(CNc2ccc(Cc3c[nH]c4ncc(Cl)cc34)cn2)cn1 [pexidartinib],24,7,4,4.44,10,–,–,–,–
CO[C@]1(C(=O)N[C@@H](C)c2ccc(-n3cc(F)cn3)nc2)CC[C@H](c2nc(C)cc(Nc3cc(C)[nH]n3)n2)CC1 [pralsetinib],-0.768,69,14,51,97,–,–,–,–
CCn1c(=O)c(-c2cc(NC(=O)Nc3ccccc3)c(F)cc2Br)cc2cnc(NC)cc21 [ripretinib],4.57,1.9,89,-0.349,9.48,–,–,–,–
COc1ccc(CN2C3CC2CN(c2ccc(-c4cc(OCC(C)(C)O)cn5ncc(C#N)c45)cn2)C3)cn1 [selpercatinib],66,9,5.33,40,99,–,–,–,–
Cn1cnc2c(F)c(Nc3ccc(Br)cc3Cl)c(C(=O)NOCCO)cc21 [selumetinib],-2.7,0.473,3.77,-8,11,–,–,–,–
Cc1cc(Nc2ncnc3ccc(NC4=NC(C)(C)CO4)cc23)ccc1Oc1ccn2ncnc2c1 [tucatinib],8.45,3.53,5,8,6,–,–,–,–
C=CC(=O)N1CCC([C@@H]2CCNc3c(C(N)=O)c(-c4ccc(Oc5ccccc5)cc4)nn32)CC1 [zanubrutinib],13,0.606,4,-9,5.5,–,–,–,–
